In paper PMC11868579 (Nature Communications, 2024):

Columns and labels:
MCL1 protein expression = assay: Immunoblot of MCL1 in eIF4E-dTAG clones and rescue models; type: cell-based, human; details: for Quantification of MCL1 immunoblot signals using Image J, Average: Cont = 100; for Quantification of MCL1 (6hr) immunoblot signal using Image J, Average: 0.5 μM, control = 100
Method: One sample t and Wilcoxon tests (two-sided), using 100% as hypothetical control value, were performed and compared with the control in each cell line. b, c Real-time cell growth measurements monitored every 4 h over a 6-day period. Cell confluency (%) was calculated using Incucyte Zoom software and (mean ± SEM n = 3 biological replicates). Ordinary one-way ANOVA with Tukey multiple comparisons test compared treatment with the control in each cell line. […] Vinculin was used as loading control. H1299 (PAR) cell lines were treated with 1 μM dTAG^V-1 only as qualitative control. Vinculin was used as loading control. […] Significant p-values (< 0.05) are shown on the plots and the source data is located in the Source Data file.
After seeding overnight in 6 well plates (Corning, cat#353046), cells were treated with compounds for the indicated times and concentration, harvested and the cell pellet lysed on ice in cell lysis buffer (Cell Signaling, cat#9803), supplemented with 1x Halt^TM protease inhibitor cocktail (Fisher Scientific, cat#78429) and cOmplete^TM protease inhibitor cocktail (Sigma-Aldrich, cat#11836153001) for 1 hr. Protein was quantified using BCA protein kit (Fisher Scientific, cat#23225). Western blot was performed using NuPAGE^TM 4–12% Bis-Tris gels (Fisher Scientific, cat#NP0336BOX) and transferred using the Invitrogen iBLOT^TM gel transfer device system (Fisher Scientific, Cat#IB21001). […] All primary antibodies were diluted (1:1000) in 5% BSA (Sigma-Aldrich, cat#A7906) in 1x TBS and 0.1% Tween 20 (Sigma-Aldrich, cat#P1379), except for vinculin (1:2000) that was diluted in casein blocker (Sigma-Aldrich, cat#1610782). This was followed by incubation with the secondary HRP-conjugated antibodies (anti-mouse HRP, Bio-rad, Watford, UK, cat#1705047; anti-rabbit HRP, Sigma-Aldrich, cat#NA934) in casein for 1 h at RT. ECL HRP substrate (SuperSignalTM West Pico, Fisher Scientific, cat#34578) was then added to detect protein targets by chemiluminescence and images acquired using the ChemiDocTM system (Bio-Rad). Quantitative densitometry analysis of protein bands was performed using Image J v1.53 software.

H1299 cells = assay: CellTiter-Blue cell viability, H1299; type: cell-based, human; details: for Cell viability by cell titre blue assay, Average: H1299, 4 days, n=3
Method: Cell viability was measured by CellTiter-Blue® Cell Viability Assay. Cells were seeded in 96 well plates (Corning, cat#353072) and left overnight. Compounds were added at a range of concentrations and plates incubated at 37 °C for 96 hr. Cell titre blue reagent (Promega, Hampshire, UK, cat# G8081) was added (5 μl/well) and incubated for a further 2 h at 37 °C. Fluorescence (579Ex/584Em) was measured using a PHERAstar plate reader.

eIF4E:eIF4G interaction = eIF4E:eIF4G interaction (Homo sapiens, UniProt P06730); assay: Electro-chemiluminescent binding assay, eIF4E:eIF4G, H1299 cell lysates; type: biochemical; set-up: endogenous in cells; host or cells: HeLa, SW620 or H1299 cells (lysates; intact H1299 cells in A13); details: for endogenous eIF4E:eIF4G interaction, electro-chemiluminescent signal, Average: n=3, 0 μM control in r69
Method: This assay uses plates with carbon electrodes and electro-chemiluminescent labels (SULFO-TAGs) that are conjugated to detection antibodies. When an electric current is applied to the plate electrodes the SULFO-TAG labels will emit light that is measured to quantify analytes in the sample. […] The plates were washed with 3 ×150 µl/well MSD wash buffer (cat#R61AA-1; 0.2% Tween-20 in PBS), then blocked with 150 µl/well block buffer (MSD, cat# R93AA) for 1 h. […] The incubated plates were washed 4x in 150 µl in MSD wash buffer and were re-blocked by the addition of 25 μl of blocking buffer containing a 1:500 dilution of the secondary antibody and incubated for 1 hr at RT with rotational shaking. […] Plates were then washed again 4x in 150 µl in MSD wash buffer and 25 μl of a 1:50 dilution of Goat anti-rabbit Sulfo-Tag (MSD, Cat# R32AB-1) in MSD blocking buffer was added and the plates incubated for 1 h at RT with rotational shaking. After a final wash step, 150 μl Read Buffer T4X (MSD, Cat# R92-TC2) was added and the plate read using the MSD QuickPlex SQ 120 plate reader.

IRES-driven translation = assay: HeLa in vitro translation assay, IRES-driven reporter; type: biochemical, human; details: for rLuc (IRES) luminescence normalized to DMSO control, Average: HeLa lysate IVT, n=3
Method: HeLa In vitro translation (IVT) assay kits were purchased from Thermo Fisher(cat#88882). Bicistronic reporter mRNA was prepared from using a CMV/T7-renilla luciferase-IRES(FDMV)-firefly luciferase reporter vector as template DNA (supplied by Oxford Genetics Ltd.) using Message Machine T7 Ultra transcription Kit (Thermo Fisher, cat# AM1345) to generate in vitro transcribed mRNA. DNA template was removed with Turbo DNase from the transcription kit and the mRNA purified using RNeasy columns (Qiagen, cat#74204). RNA concentration was adjusted to 1 µg/µl using a Nanodrop. In vitro translation assays were then set up using a HeLa IVT kit according to the manufacturer’s protocol. The reaction was analysed using Dual Glo luciferase reporter assays (Promega, cat#E2920). Compounds were diluted from 100x DMSO stocks 1:10 in PBS and 2.5 µl transferred to 96 well PCR plates (Starlab, cat#I1402-9700). 22.5 µl IVT reaction mix (1.5 mL HeLa lysate, 60 µl RNAsin (Promega, cat#N2115), 300 µl accessory proteins, 600 µl reaction buffer, 200 µl nuclease free water and 30 µl […] mRNA) was added and incubated for 30 min at 30 °C (PCR alphacycler 4, PCRmax, Stone, Staffordshire, UK). The samples were placed on ice for 10 min, then 10 µl was removed and transferred to a white 96 well assay plate (Corning, cat#3917). […]

eIF4E:eIF4G interaction, sequence (P06730 2-217 limits assumed): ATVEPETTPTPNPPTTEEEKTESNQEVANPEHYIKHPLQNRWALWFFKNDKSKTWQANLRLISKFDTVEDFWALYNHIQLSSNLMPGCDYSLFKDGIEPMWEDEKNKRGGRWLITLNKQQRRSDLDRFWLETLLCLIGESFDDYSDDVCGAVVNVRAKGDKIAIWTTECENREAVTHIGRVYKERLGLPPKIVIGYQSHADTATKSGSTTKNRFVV

CC[C@H](O[C@H](C)CO)c1ccc(-c2ccccc2F)cc1NCCO [Compound 4]
MCL1 expression on co-treatment (MCL1 protein expression; 25 μM with dTAG^V-1, C3-1 or L85R rescue line): no additional loss of proliferation or MCL1 expression
effect on MCL1 biomarker (MCL1 protein expression; 25 μM, absence of dTAG^V-1, C3-1, W73F and L85R models): no effect on the MCL1 biomarker or proliferation
antiproliferative activity (H1299 cells; H1299, 96 hr): lacked on-target antiproliferative activity
Cell viability by cell titre blue assay, Average (H1299 cells; 0.62 uM): 93.752
Cell viability by cell titre blue assay, Average (H1299 cells; 1.85 uM): 89.518
Cell viability by cell titre blue assay, Average (H1299 cells; 5.56 uM): 87.397
Cell viability by cell titre blue assay, Average (H1299 cells; 16.67 uM): 77.938
Cell viability by cell titre blue assay, Average (H1299 cells; 50 uM): 33.702
endogenous eIF4E:eIF4G interaction, electro-chemiluminescent signal, Average (eIF4E:eIF4G interaction; 0.1 μM): 820654.4
endogenous eIF4E:eIF4G interaction, electro-chemiluminescent signal, Average (eIF4E:eIF4G interaction; 1 μM): 641951.8
endogenous eIF4E:eIF4G interaction, electro-chemiluminescent signal, Average (eIF4E:eIF4G interaction; 10 μM): 429514.6
endogenous eIF4E:eIF4G interaction, electro-chemiluminescent signal, Average (eIF4E:eIF4G interaction; 100 μM): 347571.1
EC50 (eIF4E:eIF4G interaction; read-out: EC50, eIF4G:eIF4E binding): ~1500 nM
EC50 (IRES-driven translation; HeLa in vitro translation, 30 min, read-out: effect on IRES-driven translation): > 100000 nM
rLuc (IRES) luminescence normalized to DMSO control, Average (IRES-driven translation; 1 μM): 97.0%
rLuc (IRES) luminescence normalized to DMSO control, Average (IRES-driven translation; 10 μM): 85.6%
rLuc (IRES) luminescence normalized to DMSO control, Average (IRES-driven translation; 100 μM): 88.7%

CC[C@@H](O[C@H](C)CO)c1ccc(-c2ccccc2F)cc1NCCO [Compound 5]
Cell viability by cell titre blue assay, Average (H1299 cells; 0.62 uM): 92.413
Cell viability by cell titre blue assay, Average (H1299 cells; 1.85 uM): 89.367
Cell viability by cell titre blue assay, Average (H1299 cells; 5.56 uM): 90.001
Cell viability by cell titre blue assay, Average (H1299 cells; 16.67 uM): 80.933
Cell viability by cell titre blue assay, Average (H1299 cells; 50 uM): 48.944
endogenous eIF4E:eIF4G interaction, electro-chemiluminescent signal, Average (eIF4E:eIF4G interaction; 0.1 μM): 815674.7
endogenous eIF4E:eIF4G interaction, electro-chemiluminescent signal, Average (eIF4E:eIF4G interaction; 1 μM): 773437.1
endogenous eIF4E:eIF4G interaction, electro-chemiluminescent signal, Average (eIF4E:eIF4G interaction; 10 μM): 757778.5
inhibition of eIF4G:eIF4E binding (eIF4E:eIF4G interaction; 100 µM): ~ 10%
endogenous eIF4E:eIF4G interaction, electro-chemiluminescent signal, Average (eIF4E:eIF4G interaction; 100 μM): 644050.9
effect on cap-independent IRES-driven translation (IRES-driven translation; 1, 10, 100 µM): no significant effect
rLuc (IRES) luminescence normalized to DMSO control, Average (IRES-driven translation; 1 μM): 100.6%
rLuc (IRES) luminescence normalized to DMSO control, Average (IRES-driven translation; 10 μM): 89.2%
rLuc (IRES) luminescence normalized to DMSO control, Average (IRES-driven translation; 100 μM): 98.4%

CC[C@H](C(=O)N1CCCC[C@H]1C(=O)O[C@H](CCc1ccc(OC)c(OC)c1)c1ccccc1OCC(=O)NCCCCCCC(=O)N[C@H](C(=O)N1C[C@H](O)C[C@H]1C(=O)N[C@@H](C)c1ccc(-c2scnc2C)cc1)C(C)(C)C)c1cc(OC)c(OC)c(OC)c1 [dTAG^V-1]
Quantification of MCL1 immunoblot signals using Image J, Average (MCL1 protein expression; C3-1 + WT eIF4E, 0.5 uM, n=3): 116.17
Quantification of MCL1 immunoblot signals using Image J, Average (MCL1 protein expression; C3-1 + WT eIF4E, 1 uM, n=3): 110.20
Quantification of MCL1 (6hr) immunoblot signal using Image J, Average (MCL1 protein expression; C3-1, n=3): 44
Quantification of MCL1 immunoblot signals using Image J, Average (MCL1 protein expression; C3-1, 0.5 uM, n=3): 39.67
Quantification of MCL1 immunoblot signals using Image J, Average (MCL1 protein expression; C3-1, 1 uM, n=3): 38.77
Quantification of MCL1 immunoblot signals using Image J, Average (MCL1 protein expression; L85R, 0.5 uM, n=3): 69.30
Quantification of MCL1 immunoblot signals using Image J, Average (MCL1 protein expression; L85R, 1 uM, n=3): 57.73
Quantification of MCL1 immunoblot signals using Image J, Average (MCL1 protein expression; L134R, 0.5 uM, n=3): 63.30
Quantification of MCL1 immunoblot signals using Image J, Average (MCL1 protein expression; L134R, 1 uM, n=3): 50.60
Quantification of MCL1 (6hr) immunoblot signal using Image J, Average (MCL1 protein expression; S209A rescue, n=3): 117
Quantification of MCL1 immunoblot signals using Image J, Average (MCL1 protein expression; S209A, 0.5 uM, n=3): 104.13
Quantification of MCL1 immunoblot signals using Image J, Average (MCL1 protein expression; S209A, 1 uM, n=3): 110.17
Quantification of MCL1 (6hr) immunoblot signal using Image J, Average (MCL1 protein expression; W56A rescue, n=3): 49
Quantification of MCL1 immunoblot signals using Image J, Average (MCL1 protein expression; W56A, 0.5 uM, two experiments): 55.95
Quantification of MCL1 immunoblot signals using Image J, Average (MCL1 protein expression; W56A, 1 uM, n=3): 64.70
Quantification of MCL1 immunoblot signals using Image J, Average (MCL1 protein expression; W73F/L85R, 0.5 uM, n=3): 57.83
Quantification of MCL1 immunoblot signals using Image J, Average (MCL1 protein expression; W73F/L85R, 1 uM, n=3): 56.77
Quantification of MCL1 immunoblot signals using Image J, Average (MCL1 protein expression; W73F, 0.5 uM, n=3): 92.60
Quantification of MCL1 immunoblot signals using Image J, Average (MCL1 protein expression; W73F, 1 uM, n=3): 99.57
Quantification of MCL1 (6hr) immunoblot signal using Image J, Average (MCL1 protein expression; WT rescue, n=3): 99
MCL1 protein after treatment (MCL1 protein expression; eIF4E-dTAG clones): decrease in MCL1 protein
